Values joined by “and” are separate entries in the source; they are usually repeats but may differ in a detail not shown here. Equal entries are not always repeated.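 Where inhibition never reached the appropriate level, the endpoint shown equals the highest concentration tested. Otherwise, values were interpolated linearly from a five-concentration, 48-hour dose response in 96-well plates. Here, GI50 denotes the concentration required for 50% inhibition of growth. TGI: concentration producing complete growth inhibition.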
Key:
Experiment in all cases: growth of human tumour cells (NCI), 48 h
[1] = system: NCI-H23 lung
[2] = system: SK-MEL-5 melanoma
[3] = system: RPMI-8226 leukemia
[4] = system: SK-MEL-28 melanoma
[5] = system: SF-268 CNS
[6] = system: LOX IMVI melanoma
[7] = system: SW-620 colon
[8] = system: OVCAR-4 ovarian
[9] = system: CCRF-CEM leukemia
[10] = system: HCT-15 colon

Row | SMILES | TGI [1] | TGI [2] | TGI [3] | TGI [4] | TGI [5] | TGI [6] | TGI [7] | TGI [8] | TGI [9] | TGI [10] [µM] | GI50 [1] [µM] | GI50 [2] [µM] | GI50 [3] [µM] | GI50 [4] [µM] | GI50 [5] [µM] | GI50 [6] [µM] | GI50 [7] [µM] | GI50 [8] [µM] | GI50 [9] [µM] | GI50 [10] [µM]
1 | COC1=C(C)C(=O)c2c(c(COC(N)=O)c3n2CC2C3N2C)C1=O (stereo unspecified) | < 0.0363 µM | 0.15 µM | 0.117 µM | 0.173 µM | 0.6 µM | 0.053 µM | 0.145 µM | 0.244 µM | 0.105 µM | 0.0719 |  |  |  |  |  |  |  |  |  | 
2 | Cc1cn(C2CC(O)C(CO)O2)c(=O)n2nnnc12 (stereo unspecified) | > 100 µM | > 100 µM | > 100 µM | > 100 µM | > 100 µM | > 100 µM | > 100 µM | > 100 µM | > 100 µM | > 100 |  |  |  |  |  |  |  |  |  | 
3 | Cc1nc(N)sc1C(=O)/C=C\c1ccc2c(c1)OCO2 | > 100 µM | > 100 µM | > 100 µM | > 100 µM | > 100 µM | > 100 µM | > 100 µM | > 100 µM | > 100 µM | > 100 |  |  |  |  |  |  |  |  |  | 
4 | CC1(C)C(=O)N(CCCCCCN2C(=O)C(C)(C)c3ccccc32)c2ccccc21 | > 100 µM | 33.5 µM | 45.1 µM | > 100 µM | > 100 µM | 43.5 µM | 30.3 µM | > 100 µM | 47.5 µM | > 100 |  |  |  |  |  |  |  |  |  | 
5 | O=C(O)C1OC(n2cc(F)c(=O)[nH]c2=O)CC1O (stereo unspecified) | > 100 µM | > 100 µM | > 100 µM | > 63.1 µM | > 100 µM | > 100 µM | > 100 µM | > 100 µM | > 100 µM | > 100 |  |  |  |  |  |  |  |  |  | 
6 | NC(N)=N/N=C(\c1nc2ccc([N+](=O)[O-])cc2[nH]c1=O)C(O)c1ccc([N+](=O)[O-])cc1 (stereo unspecified) | > 100 µM | > 100 µM | > 100 µM | > 100 µM | > 100 µM | > 100 µM | > 100 µM | > 100 µM | > 100 µM | > 100 |  |  |  |  |  |  |  |  |  | 
7 | CS/C(N)=N\NC(=O)CCC(=O)Nc1ccccc1C(F)(F)F | > 100 µM | > 100 µM | > 100 µM | > 100 µM | > 100 µM | > 100 µM | > 100 µM | > 100 µM | > 100 µM | > 100 |  |  |  |  |  |  |  |  |  | 
8 | Clc1ccc(C2=Nn3c(COc4ccccc4Cl)nnc3SC2)c(Cl)c1 | 39.6 µM | 28.5 µM | > 100 µM | 53.9 µM | > 100 µM | 28.7 µM | > 100 µM | > 100 µM | > 100 µM | > 100 | 15.5 | 12.6 | 44.7 | 17 | 31.8 | 15.2 | 18.5 | 26.9 | 30.6 | 54.6
9 | Cc1ccc(C(=O)CN(/C=C/C(=O)C(F)(F)F)c2ccc(S(N)(=O)=O)cc2)cc1 | > 100 µM | > 100 µM | > 100 µM | > 100 µM | > 100 µM | > 100 µM | > 100 µM | > 100 µM | > 100 µM | > 100 | 37.2 | 49.8 | 29.7 | > 100 | > 100 | 76 | > 100 | > 100 | 30.3 | 86
10 | CN1CCN(CCCOc2ccc3nc(Nc4ccc(Cl)c(C(F)(F)F)c4)ccc3c2)CC1 | 29.3 µM | 29.1 µM | 34.2 µM | 29.2 µM | 30 µM | 15.9 µM | 22.1 µM | 26.4 µM | 22.1 µM | 13.3 | 13.9 | 15.1 | 14.3 | 13.8 | 14.1 | 4.07 | 8.97 | 12.7 | 6 | 3.66
11 | N=C1C(c2nc3ccccc3s2)=C(O)CN1c1cc(C(F)(F)F)ccc1Cl | > 100 µM | 46.7 µM | 53 µM | > 100 µM | > 100 µM | > 100 µM | > 100 µM | > 100 µM | > 100 µM | > 100 | 26.3 | 6.61 | 7.46 | 69 | 28.8 | 22.7 | 36.4 | > 100 | 21.3 | 3.44
12 | COC(=O)[C@@H](C)CNS(=O)(=O)N(c1cc(C(F)(F)F)cc(C(F)(F)F)c1)C1CCN(Cc2ccc(F)cc2)CC1 | 25.9 µM | 12 µM | 25.6 µM | 27.8 µM | 26.3 µM | 25 µM | 24.9 µM | 24.7 µM | 30.7 µM | 17.9 | 12.2 | 3.19 | 7.57 | 14 | 11.5 | 8.1 | 11.1 | 11.9 | 12.8 | 4.42
13 | COc1cccc2c1C(=O)c1c(O)c3c(c(O)c1C2=O)C[C@@](O)(C(C)=O)C[C@@H]3OC1OC(C)C(O)C(N)C1Br (stereo partly specified) | 0.206 µM and 0.177 µM | 0.223 µM and 0.139 µM | 0.702 µM and 0.263 µM | 1.28 µM and 1.32 µM | 3.63 µM and 1.21 µM | 0.153 µM and 0.164 µM | 0.766 µM and 1.46 µM | 0.83 µM and 2.71 µM | 0.07 µM and 0.108 µM | 0.78 | 0.0174 | 0.0166 | 0.0124 | 0.22 | 0.0365 |  | 0.0266 | 0.43 |  | 
14 | Cc1cc(Cl)ccc1N=C1NC(=O)C(CC(=O)Nc2ccc([N+](=O)[O-])cc2[N+](=O)[O-])S1 (stereo unspecified) | 51.8 µM | 31.1 µM | 53.6 µM | > 100 µM | > 100 µM | > 100 µM | > 100 µM | 56.3 µM | > 100 µM | > 100 |  |  |  |  |  |  |  |  |  | 
15 | Cc1ccn2c(c1)nc1nc3ccccc3nc12 | > 100 µM | > 100 µM | > 100 µM | > 100 µM | > 100 µM | > 100 µM | > 100 µM | > 100 µM | > 100 µM | > 100 |  |  |  |  |  |  |  |  |  | 
16 | NCC1Nc2ccccc2[C@@H](O)C1O (stereo partly specified) | > 100 µM | > 100 µM | > 100 µM | > 100 µM | > 100 µM | > 100 µM | > 100 µM | > 100 µM | > 100 µM | > 100 |  |  |  |  |  |  |  |  |  | 
17 | COc1ccccc1CNCCCN1C(=O)c2ccc3c4c(ccc(c24)C1=O)C(=O)N(CCCOCCCCOCCCN)C3=O | 2.58 µM | 1.18 µM | 5.21 µM | 3.05 µM | 3.63 µM | 3.01 µM | 1.54 µM | 0.54 µM | 3.54 µM | 3.3 | 0.604 | 0.288 | 1.72 | 1.59 | 1.42 | 1.26 | 0.357 | 0.193 | 0.559 | 0.888
18 | C=C1C(=O)O[C@@H]2/C=C(\C)CC/C=C(/COC(C)=O)C[C@@H](OC(C)=O)[C@@H]12 | 32.5 µM | 25.7 µM | > 41.7 µM | 23.5 µM | 33.2 µM | 13.1 µM | 15.4 µM | 45.1 µM | 14.3 µM | 12.4 |  |  |  |  |  |  |  |  |  | 
19 | CC(C)n1nc(-c2cc3cc(O)ccc3[nH]2)c2c(N)ncnc21 | 9.19 µM | 1.43 µM | 1.25 µM | 1.67 µM | 4.78 µM |  | 14.2 µM | 0.923 µM | 4.28 µM | 13.9 | 0.317 | 0.171 | 0.0705 | 0.12 | 0.224 | 0.309 | 1.31 | 0.0827 | 0.345 | 0.342
20 | COc1ccc(Cn2cc3c(c2-c2ccccc2)CC(C)(C)c2cnoc2-3)cc1 | > 100 µM | 9.61 µM | > 100 µM | > 100 µM | > 100 µM | > 100 µM | > 100 µM | > 100 µM | > 100 µM | > 100 | 2.29 | 1.6 | 3.09 | 6.86 | 3.92 | 3.55 | 0.806 | 5.23 | 2.47 | 1.02
21 | N#C/C(=C1C=C(Br)/C(=N\O)C=C\1Cl)c1cccc2ccccc12 | 36.3 µM | 13.4 µM | 32.4 µM | 21.9 µM | 29.3 µM | > 100 µM | 25.5 µM | 7.6 µM | 13.9 µM | 25.6 |  |  |  |  |  |  |  |  |  | 
22 | CN(C)C(=O)c1cc2cnc(Nc3ccc(-c4csc5c(=S)cc(N6CCOCC6)oc45)cc3)nc2n1C1CCCC1 | > 19.5 µM | 2.43 µM | 1.45 µM | > 50 µM | > 50 µM | 2.54 µM | > 50 µM | > 50 µM | > 9.84 µM | > 50 | 0.699 | 0.715 | 0.252 | 0.752 | 0.693 | 0.355 | 0.604 | 1.03 | 0.274 | 0.344
23 | COc1cc(-c2ccc3c(c2)NC(=O)/C3=C\c2ccc[nH]2)ccc1O | > 50 µM | 1.69 µM | > 16.2 µM | > 50 µM | > 50 µM | > 50 µM | > 50 µM | > 50 µM | > 16.7 µM | > 50 | 0.0662 | 0.0368 | 0.0228 | 2.19 | 0.377 | 0.0353 | 0.0188 | 2.58 | 0.0176 | 0.0228

From PubChem BioAssay (NCI)
